Test results as given in patent US11214590B2, “Photoresponsive nucleotide analog capable of photocrosslinking in visible light region” (JAPAN ADVANCED INSTITUTE OF SCIENCE AND TECHNOLOGY, priority 2017, dated 2022).

Tests used:
[1] = test system: cODN; assay: Photocrosslinking test with SPCX, UPLC analysis; type: biochemical
Experimental: The experiment was carried out as described below using the following ODN (^SPCX) and cODN:
10 μM of ODN (^SPCX) and 10 μM of cODN were dissolved in a 50 mM cacodylic acid buffer (pH 7.4) containing 100 mM of NaCl, and then heated at 90° C. for 1 minute, and then cooled at 4° C. Irradiation with light having 450 nm (LED) was carried out at 4° C. Analysis was then carried out by UPLC. The analysis conditions for UPLC are as follows. The measurement was carried out at a measurement wavelength of 260 nm and at a flow rate of 0.2 mL/min, using a mixed solution of ammonium formate and acetonitrile in which the initial conditions were 99% of ammonium formate and […], and 85% of ammonium formate and 15% of acetonitrile at the end of the analysis (10 minutes).

[2] = test system: nucleic acids; settings: irradiation with light having 350 nm; cited from earlier work

Molecule: OC[C@H]1O[C@@H](n2c3ccccc3c3cc4ccc(=S)oc4cc32)CC1O (stereo partly shown) [^SPCX]
- photoreactivity compared with pyranocarbazole (PCX) ([1]; irradiation with light having 450 nm): higher photoreactivity
- light irradiation time giving photocrosslinking ([1]; irradiation with light having 450 nm, 4° C.): 10 s

Molecule: O=c1ccc2cc3ccoc3cc2o1 [psoralen]
- time required for photoreaction [2]: several hours

Molecule: 5'-TGCA^SPCXCCGT-3' [ODN (^SPCX)]
- progress of photocrosslinking reaction (UPLC peaks) ([1]; 450 nm (LED), 4° C., 10 μM ODN and 10 μM cODN): progress of the photocrosslinking reaction was confirmed
